Laboratory results taken from patent US9555009B2, “Ciprofloxacin loaded diethylaminoethyl cellulose nanoparticles” (priority 2014, dated 2017).

Details: XRD

O=C(O)c1cn(C2CC2)c2cc(N3CCNCC3)c(F)cc2c1=O [pure ciprofloxacin, Ciprofloxacin]
average crystallite size / particle size by Scherrer's equation: 3.22 nm
